Measured values taken from PubChem BioAssay (NCI).
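Five concentrations, 48 hours, 96-well plates. GI50: concentration for 50% inhibition of growth. The concentration for full growth arrest is given as TGI.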

Tests used:
Test in all cases: NCI anticancer screen, dose series, 48 h
HCC-2998 colon = system: HCC-2998 colon
UACC-257 melanoma = system: UACC-257 melanoma
OVCAR-5 ovarian = system: OVCAR-5 ovarian
RXF 393 renal = system: RXF 393 renal
A498 renal = system: A498 renal
UACC-62 melanoma = system: UACC-62 melanoma
T-47D breast = system: T-47D breast
OVCAR-4 ovarian = system: OVCAR-4 ovarian
MCF7 breast = system: MCF7 breast
LOX IMVI melanoma = system: LOX IMVI melanoma

Compound	GI50 (HCC-2998 colon)	TGI (HCC-2998 colon)	GI50 (UACC-257 melanoma)	TGI (UACC-257 melanoma)	GI50 (OVCAR-5 ovarian)	TGI (OVCAR-5 ovarian)	GI50 (RXF 393 renal)	TGI (RXF 393 renal)	GI50 (A498 renal)	TGI (A498 renal)	GI50 (UACC-62 melanoma)	TGI (UACC-62 melanoma)	GI50 (T-47D breast)	TGI (T-47D breast)	GI50 (OVCAR-4 ovarian)	TGI (OVCAR-4 ovarian)	GI50 (MCF7 breast)	TGI (LOX IMVI melanoma)	TGI (MCF7 breast)
Cc1cc(/C=C\c2ccc3ccccc3[n+]2C)c(O)c2ncccc12	0.112 µM	0.593 µM	1.54 µM	6.59 µM	0.829 µM	6.19 µM	1.55 µM	6.03 µM	0.18 µM	3.01 µM	0.207 µM	2.62 µM	0.835 µM	5.68 µM	0.323 µM	1.73 µM	0.283 µM	–	–
OCC1OC(n2cnc3cncnc32)C(O)C1O (stereo unspecified)	–	2.84 µM	–	3.75 µM	–	4.02 µM	–	3.9 µM	–	3.69 µM	–	2.46 µM	–	–	–	2.63 µM	–	2.46 µM	2.15 µM
N=c1oc2ccc3ccccc3c2cc1C(N)=O	–	90.6 µM	–	> 100 µM	–	> 100 µM	–	> 100 µM	–	> 100 µM	–	> 100 µM	–	99.7 µM	–	> 100 µM	–	> 100 µM	–
Cc1cccc2c1[nH]c1[nH]c(=O)[nH]c(=O)c12	–	–	–	> 100 µM	–	> 100 µM	–	> 100 µM	–	> 100 µM	–	> 100 µM	–	> 100 µM	–	> 100 µM	–	> 100 µM	> 100 µM
Cc1cc(=O)n2nc(SCc3ccccc3)sc2n1	–	> 100 µM	–	–	–	> 100 µM	–	> 100 µM	–	> 100 µM	–	> 100 µM	–	> 100 µM	–	> 100 µM	–	> 100 µM	> 100 µM
O=C1CCC2(CCO1)OCCO2	–	> 100 µM	–	> 100 µM	–	> 100 µM	–	> 100 µM	–	–	–	> 100 µM	–	> 100 µM	–	> 100 µM	–	> 100 µM	> 100 µM
N=C1N(S(=O)(=O)c2ccccc2)[C@@H](Cc2ccccc2)[C@H](c2ccccc2)C1(c1ccccc1)c1ccccc1	–	> 100 µM	–	> 100 µM	–	> 100 µM	–	> 100 µM	–	> 100 µM	–	> 100 µM	–	–	–	> 100 µM	–	> 100 µM	> 100 µM
Clc1ccc(Cc2nc3ccccc3nc2-c2cccc(Br)c2)cc1	–	3.36 µM	–	7.7 µM	–	16.6 µM	–	6.26 µM	–	–	–	4.01 µM	–	4.54 µM	–	–	–	3.73 µM	11.3 µM
CN(C)c1nc(N(C)C)nc(N(C)C23CC4CC(CC(C4)C2)C3)n1	–	85.3 µM	–	> 100 µM	–	> 100 µM	–	67.9 µM	–	> 100 µM	–	> 100 µM	–	> 100 µM	–	> 100 µM	–	–	> 100 µM
CCOP(=O)(OCC)C(Nc1cccc(F)c1)c1ccccc1 (stereo unspecified)	–	> 100 µM	–	> 100 µM	–	–	–	> 100 µM	–	> 100 µM	–	> 100 µM	–	> 100 µM	–	> 100 µM	–	> 100 µM	> 100 µM
Cc1ccc(S(=O)(=O)NNC(=O)c2cc(C)ccc2NC(=O)C23CC4CC(CC(C4)C2)C3)cc1	–	> 100 µM	–	> 100 µM	–	> 100 µM	–	78 µM	–	–	–	> 100 µM	–	> 100 µM	–	78.5 µM	–	> 100 µM	> 100 µM
N#Cc1nc(CCCCCN2C(=O)c3ccccc3C2=O)oc1N	–	> 100 µM	–	> 100 µM	–	> 100 µM	–	> 100 µM	–	–	–	–	–	> 100 µM	–	> 100 µM	–	> 100 µM	> 100 µM
COC1OC(Cc2nnc(C)o2)C(OCc2ccccc2)C(OCc2ccccc2)C1OCc1ccccc1 (stereo unspecified)	–	–	–	36.9 µM	–	> 100 µM	–	48.2 µM	–	> 100 µM	–	32.3 µM	–	> 100 µM	–	> 100 µM	–	40.3 µM	49.7 µM
Nc1cccc2c1C(=O)c1cccc(N)c1C2=O	–	> 100 µM	–	> 100 µM	–	> 100 µM	–	> 100 µM	–	> 100 µM	–	> 100 µM	–	–	–	> 100 µM	–	> 100 µM	–
CCOC(=O)c1c(N2CCCC2)ncn(-c2ccccc2)c1=S	–	> 100 µM	–	> 100 µM	–	> 100 µM	–	> 100 µM	–	> 100 µM	–	> 100 µM	–	> 100 µM	–	> 100 µM	–	> 100 µM	–
CCOC(=O)C(=[N+]=[N-])C(=O)Nc1nn2nnnc2c2ccccc12	–	> 100 µM	–	> 100 µM	–	> 100 µM	–	> 100 µM	–	> 100 µM	–	> 100 µM	–	–	–	> 100 µM	–	> 100 µM	> 100 µM
Cc1ccc(C(C)(C)C[P+](C)(c2ccccc2)c2ccccc2)cc1	–	> 70.3 µM	–	> 26.7 µM	–	> 100 µM	–	> 94.1 µM	–	> 100 µM	–	61.4 µM	–	–	–	63.7 µM	–	37.8 µM	> 81.2 µM
CC(=O)/C(=C/n1c(=S)[nH]c2ccccc21)C(=O)Nc1ccccc1C	–	> 100 µM	–	> 100 µM	–	> 100 µM	–	> 100 µM	–	> 100 µM	–	–	–	> 100 µM	–	> 100 µM	–	> 100 µM	–
Cc1ccccc1-n1c(C)nc2c1C(=O)c1ccccc1C2=O	–	> 100 µM	–	> 100 µM	–	> 100 µM	–	> 100 µM	–	> 100 µM	–	> 100 µM	–	–	–	> 100 µM	–	–	–
COc1cccc(CC(C)NCC(O)c2ccc(O)c(O)c2)c1 (stereo unspecified)	–	–	–	> 100 µM	–	47.4 µM	–	> 100 µM	–	> 100 µM	–	> 100 µM	–	> 100 µM	–	> 100 µM	–	> 100 µM	> 100 µM
Nc1ncnc2c1ncn2C1CCC(COS(N)(=O)=O)C1 (stereo unspecified)	–	> 100 µM	–	> 100 µM	–	> 100 µM	–	> 100 µM	–	–	–	> 100 µM	–	> 100 µM	–	> 100 µM	–	> 100 µM	> 100 µM
COc1ccc(/C=c2\[nH]c3nc(=O)c(N4CCOCC4)c(N)n3c2=O)cc1	–	> 100 µM	–	> 100 µM	–	> 100 µM	–	> 100 µM	–	> 100 µM	–	–	–	> 100 µM	–	> 100 µM	–	> 100 µM	> 100 µM
COC(=O)C1CCC(=O)N1C(=O)Cc1ccc(OC)cc1 (stereo unspecified)	–	–	–	> 100 µM	–	> 100 µM	–	–	–	> 100 µM	–	> 100 µM	–	–	–	> 100 µM	–	> 100 µM	–
